Laboratory results: patent US7265111B2, “Adenosine analogues and their use as pharmaceutical agents” (Sanofi-Aventis Deutschland GmbH, priority 2002, dated 2007)

Key:
Adenosine A1 receptor = molecular target: T1, Adenosine A1 receptor (Homo sapiens, UniProt P30542); assay: FLIPR intracellular Ca2+ functional assay, recombinant CHO cells (A1/Gα6qi4myr); type: cell-based; conditions: read-out: EC50 values (agonist activity at adenosine receptors) A1
T1 construct: expressed in transfected cells; host or cells: CHO (Chinese hamster ovary) cells, stably double-transfected
T1 sequence (P30542 1-326): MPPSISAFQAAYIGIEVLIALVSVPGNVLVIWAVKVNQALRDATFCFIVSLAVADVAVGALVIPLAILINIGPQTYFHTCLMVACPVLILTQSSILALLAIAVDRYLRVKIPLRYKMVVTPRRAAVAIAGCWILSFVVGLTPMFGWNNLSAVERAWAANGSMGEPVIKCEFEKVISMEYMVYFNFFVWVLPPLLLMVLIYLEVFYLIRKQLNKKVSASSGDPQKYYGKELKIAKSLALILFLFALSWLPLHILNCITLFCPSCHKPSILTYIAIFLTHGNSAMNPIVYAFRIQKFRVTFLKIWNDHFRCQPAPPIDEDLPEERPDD
Description: (§1) In Vitro Functional Assays with Recombinant Cell Lines:
(§2) Functional assays were performed by detection of agonist-induced changes in the intracellular concentration of Ca^2+ in recombinant cell lines expressing adenosine receptor subtypes using the FLIPR™ (fluorescence imaging plate reader, Molecular Devices) technology. To allow optimal signalling through Ca^2+, chinese hamster ovary (CHO) cells were stably double-transfected with cDNAs to achieve expression of suitable combinations of adenosine receptor subtypes (A1, A2a, A2b or A3) with either G-protein Gα16 or hybrid protein Gα6qi4myr (German Patent Application no. 100333532.2). Optimal signals were achieved using combinations as follows:
(§3) For assays, recombinant cells were seeded in 96-well dishes (50000 cells/well) and grown overnight. Medium was then removed and cells incubated for 1 hour in buffer containing the dye Fluo-4. After incubation with dye, cells were washed, test compound added and changes in intracellular Ca^2+ concentration measured by FLIPR. Measured values were expressed as % change relative to controls (0%: no test compound added; 100%: 1 μM Adenosine added) and used for calculation of dose-response curves and subsequent determination of EC50 values.

Adenosine A2a receptor = molecular target: T2, Adenosine A2a receptor (Homo sapiens, UniProt P29274); assay: FLIPR intracellular Ca2+ functional assay, recombinant CHO cells (A2a/Gα16); type: cell-based
T2 construct: expressed in transfected cells; host or cells: CHO (Chinese hamster ovary) cells, stably double-transfected
Description: as §1, §2, §3

Adenosine A2b receptor = molecular target: T3, Adenosine A2b receptor (Homo sapiens, UniProt P29275); assay: FLIPR intracellular Ca2+ functional assay, recombinant CHO cells (A2b/Gα16); type: cell-based
T3 construct: expressed in transfected cells; host or cells: CHO (Chinese hamster ovary) cells, stably double-transfected
T3 sequence (P29275 1-332): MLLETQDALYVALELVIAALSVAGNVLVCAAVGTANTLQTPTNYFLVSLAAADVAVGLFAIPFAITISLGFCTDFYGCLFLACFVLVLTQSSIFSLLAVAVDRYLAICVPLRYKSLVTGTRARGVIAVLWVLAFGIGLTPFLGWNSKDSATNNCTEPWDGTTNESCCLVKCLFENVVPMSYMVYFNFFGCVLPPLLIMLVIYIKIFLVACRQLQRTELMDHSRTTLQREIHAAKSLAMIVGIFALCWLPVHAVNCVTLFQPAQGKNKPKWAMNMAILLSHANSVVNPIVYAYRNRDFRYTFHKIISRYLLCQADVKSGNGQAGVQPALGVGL
Description: as §1, §2, §3

Adenosine A3 receptor = molecular target: T4, Adenosine A3 receptor (Homo sapiens, UniProt P0DMS8); assay: FLIPR intracellular Ca2+ functional assay, recombinant CHO cells (A3/Gα6qi4myr); type: cell-based; conditions: read-out: EC50 values (agonist activity at adenosine receptors) A3
T4 construct: expressed in transfected cells; host or cells: CHO (Chinese hamster ovary) cells, stably double-transfected
T4 sequence (P0DMS8 1-318): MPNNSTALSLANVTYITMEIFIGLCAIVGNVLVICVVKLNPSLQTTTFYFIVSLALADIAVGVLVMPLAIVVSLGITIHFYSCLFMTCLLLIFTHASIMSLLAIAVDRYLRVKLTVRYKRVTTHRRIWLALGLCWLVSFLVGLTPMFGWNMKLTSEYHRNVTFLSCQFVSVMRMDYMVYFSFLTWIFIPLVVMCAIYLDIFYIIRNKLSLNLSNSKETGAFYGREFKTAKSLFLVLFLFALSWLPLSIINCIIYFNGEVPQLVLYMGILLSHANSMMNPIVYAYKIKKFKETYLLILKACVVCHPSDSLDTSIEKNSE
Description: as §1, §2, §3

[1] = tested on: isolated guinea pig atrium; assay: Effect on the isolated guinea pig atrium (contractile force, heart rate); conditions: for Contractile force: at 30 μM; for Heart rate: at 1–100 μM
Description: D. Effect on the Isolated Guinea Pig Atrium:
Guinea pigs of either sex were killed by a blow on the back of the neck and exsanguinated.
Their heart was taken out and the atria removed. The preparation (atrium) was immediately transferred to Ringer solution (JT 431) which was at a temperature of 32° C. and was bubbled with a mixture of 95% O2 and 5% CO2. The composition of the solution in […] was: NaCl 9.0; KCl 0.42 CaCl2 0.24; NaHCO3 0.2; glucose 1.0. The atrium beats spontaneously with an initial tension of 500 mg. The contractile force and the heart rate was recorded with a computer program and automatically calculated (B-mon and A-mon PC programs. Fa. Jäckel. Hanau. GERMANY). After equilibration, the test compound was added to a final bath concentration. N was 4-6 per concentration.

isolated rat adipocytes = assay: Antilipolytic effect in isolated rat adipocytes; type: cell-based; conditions: Adipocyte, adenosine deaminase-induced lipolysis (glycerol and free fatty acid release)
Description: E. Antilipolytic Effect in Isolated Rat Adipocytes:
For the preparation of isolated rat adipocytes, epididymal fat pads were obtained from male Sprague-Dawley rats (150-180 g) killed by decapitation. The main fat pad blood vessel was removed with forceps and the pads were cut into small pieces. Digestion was carried out at 37° C. in a shaking water bath by treating 1 g of sliced pad for 20 min with 3 ml of 1 mg/ml collagenase (type I, CLS, Worthington) in 1% BSA, fraction V, in KRH (Krebs-Ringer solution buffered with 25 mM HEPES/KOH, pH 7.4, containing 2.5 mM CaCl2, 2 mM glucose, 1 mM sodium pyruvate, 0.5 units/ml adenosin deaminase and 200 nM phenylisopropyl adenosine). The adipocytes were filtered through nylon mesh of sufficient pore size that no pressure other than gentle teasing with a plastic spatula was necessary for the cells to pass through. After three cycles of centrifugation (500 g, 1 min), aspiration of the infranatant. and resuspension in KRH containing 1% BSA, the cells were suspended in KRH containing 4% defatted BSA. Small aliquots of the final suspension were aspirated into capillary hematocrit tubes and centrifuged for 1 min in a Microhematocrit centrifuge in order to determine what fraction of the suspension consisted of fat cells. Results expressed as activities per unit volume of packed adipocytes (corresponding to equivalent numbers of cells) are based on this centrifugation procedure. Lipolysis was initiated by addition of a 100 μl aliquot of the adipocyte suspension to 700 μl of incubation medium [prewarmed to 37° C. and consisting of KRH, 4% defatted BSA and 1 U/ml adenosine deaminase (type I, Sigma)], with or without addition of 8 μl of a solution of the appropriate test substance in 100% DMSO (at a concentration corresponding to 100 times its concentration in the final mixture). […] Incubations were performed in 5 ml polypropylene vials agitated in a shaking water bath (140 cycles/min, amplitude 4.5 cm) at 37° C. for 20, 40, and 60 min. The incubation was terminated by addition of 200 μl of 50 mM EDTA buffered to pH 7.4 with Tris. For the glycerol determination, the whole mixture was mixed rapidly and homogenized with a ground glass pestle in a 1 ml ground glass homogenizing tube (10 pulses). The homogenate was transferred immediately to a 1.5 ml Eppendorf cup precooled to 4° C., after which the extracts were maintained at 4° C. The homogenate was then centrifuged (10,000 g, 15 min) and the infranatant below the fat cake removed with a glass Pasteur pipette. taking care not to aspirate the membrane pellet. and transferred to another Eppendorf cup. 300 μl aliquots of the infranatant were added to 300 μl volumes of 10% (w/v) HClO4. The precipitate was in each case removed by centrifugation (10,000 g, 2 min) and the supernatant neutralized with 20% (w/v) KOH, followed by addition of 50 μl of 1 M Tris/HCl, pH 7.4, A 50 μl sample was then incubated (5 min, 37° C.) with 1 ml of 0.1 M HEPES/KOH, pH 7.5, containing 2 mM ATP, 0.5 mM 4-aminoantipyrine, 1 mM EDTA, 0.5 U glycerol kinase, 4 U glycerol-3-phosphate oxidase, 2 U peroxidase, 2.7 mM p-chlorophenol, 0.04% Triton X-100 and 2 mM MgSO4.7H2O, and the glycerol content determined from the absorbance at 505 nm. For the determination of free fatty acids, 300 μl aliquots of the incubation mixture were added to 3 ml of chloroform/heptane (1:1 v/v) containing 2% (v/v) methanol. and the liberated free fatty acids determined with copper reagent and bathocuproine. The inhibitory activities of the cyclipostins were calculated from the combined results (glycerol and free fatty acid release) by plotting the log of the dose against the percent response (with the adenosine deaminase-induced lipolysis set at 100%). Data in the linear portion of the log (dose)-percent response curves were analyzed using parallel-line bioassay techniques.

T2 sequence (P29274 whole entry): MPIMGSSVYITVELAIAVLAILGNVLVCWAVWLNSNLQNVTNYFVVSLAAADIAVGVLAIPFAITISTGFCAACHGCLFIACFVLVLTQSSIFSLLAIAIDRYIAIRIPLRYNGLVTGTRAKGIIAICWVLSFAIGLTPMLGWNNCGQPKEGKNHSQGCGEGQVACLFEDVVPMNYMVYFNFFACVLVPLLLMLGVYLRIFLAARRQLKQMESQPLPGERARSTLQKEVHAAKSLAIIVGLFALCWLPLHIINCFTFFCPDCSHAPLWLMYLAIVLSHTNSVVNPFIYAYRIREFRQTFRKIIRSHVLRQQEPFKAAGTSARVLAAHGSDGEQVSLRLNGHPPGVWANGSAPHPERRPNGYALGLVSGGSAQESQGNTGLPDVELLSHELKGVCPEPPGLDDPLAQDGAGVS

Question: Which EC50 (Adenosine A1 receptor) does the source give for `O[C@@H]1[C@@H](CF)C[C@@H](n2cnc3c(N[C@H]4CCN(c5ccc(C(F)(F)F)cc5)C4)ncnc32)[C@@H]1O` [Example 7, (1R,2S, 3R, 5S)-3-{6-[1-(4-trifluoromethyl-phenyl-1-yl) -pyrrolidin-3(S)-ylamino]-purin-9-yl}-5-fluoromethyl-cyclopentane-1,2-diol] here?
Answer: The EC50 was 1250 nM.

Question: And the “EC50 values (agonist activity at adenosine receptors) A2A” value (Adenosine A2a receptor)?
Answer: The value was “Inactive”.

Question: And the EC50 (Adenosine A2b receptor; read-out: EC50 values (agonist activity at adenosine receptors) A2B)?
Answer: Its EC50 is greater than 30000 nM.

Question: And the EC50 (Adenosine A3 receptor)?
Answer: Its EC50 is greater than 50000 nM.

Question: What about the Contractile force [1] of the same molecule?
Answer: Its Contractile force is −1% at 30 μM.

Question: And the Heart rate [1]?
Answer: The Heart rate was “no effect at 1–100 μM”.

Question: What about the IC50 (isolated rat adipocytes) of the same molecule?
Answer: The IC50 was 5 nM.

Question: And the melting point?
Answer: Its melting point is 178 °C.

Question: With `O[C@@H]1[C@@H](COC(F)(F)F)C[C@@H](n2cnc3c(N[C@H]4CCN(c5ccc(C(F)(F)F)cc5)C4)ncnc32)[C@@H]1O` [Example 10, (1R,2S,3R,5R)-3-{6-[1-(4-trifluoromethyl-phenyl-1-yl)-pyrrolidin-3(S)-ylamino]-purin-9-yl}-5-trifluoromethoxymethyl-cyclopentane-1,2-diol] as the molecule, how does the EC50 (Adenosine A1 receptor) read?
Answer: Its EC50 is 15400 nM.

Question: And the “EC50 values (agonist activity at adenosine receptors) A2A” value (Adenosine A2a receptor)?
Answer: The value was “Inactive”.

Question: What about the “EC50 values (agonist activity at adenosine receptors) A2B” value (Adenosine A2b receptor) of the same molecule?
Answer: Its value is “inactive”.

Question: What about the EC50 (Adenosine A3 receptor) of the same molecule?
Answer: Its EC50 is greater than 50000 nM.

Question: And the Contractile force [1]?
Answer: The Contractile force was “+3% at 30 μM”.

Question: And the Heart rate [1]?
Answer: Its Heart rate is “no effect at 1–100 μM”.

Question: What about the IC50 (isolated rat adipocytes) of the same molecule?
Answer: The IC50 was 100 nM.

Question: And the melting point?
Answer: The melting point was 153 °C.
